Laboratory results from patent US20090314217A1, “APPARATUS AND METHOD FOR TREATING NON-HUMAN MAMMALS” (Under The Boardwalk Properties 8 (Proprietary) Limited, priority 2006, published 2009).
Read-outs that look alike come from different tables or passages of the source.

What was measured:
[1] = Haematocrit in horses with billiary treated in apparatus 10; assay type: in vivo, horse; conditions: after two treatment sessions, increased from 31
[2] = Blood oxygen tests immediately before and after transdermal ozone therapy (Table 2); assay type: in vivo, horse; conditions: for PO2 / SO2: post-treat (immediately after therapy); for K+ blood concentration / Na+ blood concentration: post-treat; for K+ blood concentration: normal range 5.3-3.0; for Na+ blood concentration: normal range 150.0-133.0
Description: Blood tests were also conducted for three horses to determine when transdermal ozone therapy should be provided. The horses were Shamon, Pauli and Sinbad. The blood tests were conducted immediately before transdermal ozone therapy and immediately thereafter. For the horse Shamon, blood tests were also conducted 12 hours and 24 hours after transdermal ozone therapy.

Work on `O=[O+][O-]` [ozone] yielded a haematocrit [1] of 38%, a PO2 ([2]; horse Pauli, pre-treat 39.30) of 49.20 mmHg and an SO2 ([2]; horse Pauli, pre-treat 80.30) of 87.10%. For the same molecule, the “K+ blood concentration” value ([2]; horse Pauli, pre-treat 3.73) was 4.37 mmol/L, the “Na+ blood concentration” value ([2]; horse Pauli, pre-treat 143.00) was 144.30 mmol/L and the PO2 ([2]; horse Shamon, pre-treat 40.00) was 52.70 mmHg. For the same molecule, the SO2 ([2]; horse Shamon, pre-treat 74.60) was 90.50%, the “K+ blood concentration” value ([2]; horse Shamon, pre-treat 3.41) was 4.09 mmol/L and the “Na+ blood concentration” value ([2]; horse Shamon, pre-treat 136.00) was 148.30 mmol/L. The PO2 ([2]; horse Sinbad, pre-treat 35.90) was 48.00 mmHg, the SO2 ([2]; horse Sinbad, pre-treat 70.60) was 86.40% and the “K+ blood concentration” value ([2]; horse Sinbad, pre-treat 3.49) was 3.04 mmol/L. The “Na+ blood concentration” value ([2]; horse Sinbad, pre-treat 147.40) was 150.20 mmol/L, the “dehydration effect of transdermal ozone therapy” value ([2]; horses Shamon, Pauli, Sinbad) was “no dehydration effect” and the “Na+, K+ and Cl- blood concentrations versus normal ranges” value ([2]; horses Shamon, Pauli, Sinbad, before and after therapy) was “remained within normal ranges”. For the same molecule, the “discomfort during the treatment” value (five horses, during treatment) was “none of the horses appeared to be uncomfortable”, the “respiration of the horses during treatment” value (five horses, during treatment) was “increased” and the “motion marks in the rest of the ride” value (horse Moniq, after treatment on day 1 and day 2, motion 1 throughout day 1) was “no motion marks”. The “muscle spasms found by physiotherapist” value (horse Moniq, day 2 and day 3 of race, lumbar spasms confirmed on day 1 before treatment) was “no muscle spasms”, the creatine kinase (horse Moniq, treated on day 1 and day 2 of race, lowered from 3873) was 706 and the “rider's report on second and third days of the race” value (horse Ophelia, dehydrated and fatigued on day 1, treated after first and second day) was “felt very strong and consistent”. The “performance on third day of the race” value (horse Shamon, severe fatigue by day 2, treated in the afternoon of day 2, finished fifteenth) was “rode very well”, the “CK and AST levels” value (horses that presented symptoms of tying-up) was “marked decrease” and the “occurrence of muscle spasms” value (horses treated transdermally with ozone) was “significantly reduced”. The “energy levels and stamina” value (horses with general fatigue from constant hard work and competition) was “marked improvement”, the “motion marks or stiffness during the race” value (mare Pauli, pre-treatments before the race, history of gluteal muscle spasms and tying up, finished fourteenth) was “no motion marks or stiffness” and the “owner's report on second and third days of the race” value (mare Viola, treated on first and second day) was “felt much stronger and looser”. The aspertine amino transferase (mare Viola, treated on first and second day, lowered from more than 2000) was 1814 U/L, the creatine kinase (mare Viola, tying up on day 1, treated on first and second day, lowered from 5896) was 1599 IU/K and the “average heart-rate during treatment” value (non-accustomed horses, enclosure 42-45 °C, oxygen flow 1 l/min to ozonator) was 42 beats per minute. For the same molecule, the “muscle stiffness caused by long periods of intense exercise” value (preliminary study on endurance horses) was “benefit to reduce muscle stiffness”.
